# A melting point compilation (Tetko et al.; mined from patent text by program, amines drawn as free bases though some values may be those of a salt)
row,Structure (SMILES),melting point [°C]
1,CCC1(CCCN2CCc3sccc3C2)C(=O)Nc2ccccc21 (stereo not given),130 to 132
2,Cc1c(F)c(F)c(COC(=O)[C@@H]2[C@@H](C=O)C2(C)C)c(F)c1F,43.2
3,CN(c1cc(OCCO)cc2cc(C3=NCC(CN4CCSCC4)S3)[nH]c12)S(=O)(=O)c1ccccn1 (stereo not given),160 to 162
4,CC1(C)NC(=O)CN1C(=O)CNC(=O)CN1CC(O)CC1=O (stereo not given),227 to 229
5,CC(=O)Oc1ccc2scc(C(=O)O)c2c1,239 to 240
6,O=c1[nH]c2cc(Cl)c(F)c([N+](=O)[O-])c2[nH]c1=O,308 to 310
7,CN[C@@H](CC(C)C)C(=O)N[C@@H](Cc1ccccc1)C(N)=O,136 to 138
8,Cc1c(C(=O)Nc2ccc(OCC(C)(C)C)c(C#N)c2)cnn1C(C)(C)C,143 to 144
9,NCc1ccc(N2CCC2)cc1,58 to 60
10,Clc1cc2nc(Cl)c(I)n2cc1Cl,215 to 216
11,O=[N+]([O-])c1ccc(NCCSCc2c[nH]cn2)nc1,145 to 147
12,COC1(c2nc3ccc(F)cc3s2)C=CC(=NS(=O)(=O)c2ccc(C)cc2)C=C1 (stereo not given),135
13,O=C(O)C1=C(S(=O)(=O)c2ccccc2)CC2CC(=O)C12 (stereo not given),205 to 207
14,CCC1(CC)C(=O)N(c2ccccc2)CC(C)(C)N1OC(C)c1ccccc1 (stereo not given),78 to 81
15,CC(=S)N(C)Cc1ccc(F)cc1,99 to 104
16,CCCCCCCCCCCCC(C)CNc1cc(C)c([N+](=O)[O-])cc1C(N)=O (stereo not given),117 to 119
17,CCC(CC)(CCS(N)(=O)=O)COc1nn2ncnc2cc1C,148 to 149
18,[N-]=[N+]=C1CCc2ccccc2C1=O,50 to 52
19,Cc1cc(CCC[C@H](CC(=O)OC(C)(C)C)C(=O)N[C@H](C(=O)O)C(C)(C)C)ccc1-c1ccccc1,51 to 56
20,CCOC(=O)c1scc2c1CN(C)C(=O)c1cncn1-2,208
21,COC(=O)CCCCCCCCCCNC(=O)C(CSC(C)=O)Cc1ccccc1 (stereo not given),64 to 66
22,COc1cc(C)nc(NC(=O)NS(=O)(=O)c2ccccc2C(CF)OC(C)=O)n1 (stereo not given),198 to 200
23,COC(=O)C(C(=O)OC)N(C(N)=O)c1ccc(C=NO)cc1,162
24,O=P(O)(O)C1(P(=O)(O)O)CCCN1,80

row,Structure (SMILES),melting point [°C]
1,Cn1c(C(F)(F)F)cc(=O)n(-c2nc(Cl)c(Cl)cc2F)c1=O,113 to 115
2,C[C@H](NC(=O)[C@H](Cc1ccccc1)NC(=O)CS)C(=O)O,172 to 174
3,O=[N+]([O-])c1ccc2c(c1)CCC(COC1CCCCO1)O2 (stereo not given),66.4
4,CC(COc1ccccc1)=C1SC(=O)NC1=O,153 to 155
5,CC(O)c1ccc(C2(C(C)(C)C)OCCO2)cc1 (stereo not given),67 to 70
6,CCOC(=O)c1nc2n(n1)-c1ccc([N+](=O)[O-])cc1C(c1ccccc1F)=NC2,165 to 167
7,CCCCCC(C)C(C)c1cc(O)c2c(c1)OC(C)(C)C1=C2CN(CC(=O)Nc2ccc(Cl)cc2)CC1 (stereo not given),159 to 160
8,CCN(CC)C(=S)Oc1cccnc1F,52 to 54
9,Nc1nc(N)c(CCCNc2ccc(C(=O)N[C@@H](CCC(=O)O)C(=O)O)cc2F)c(=O)[nH]1,> 175
10,CC(=O)c1cc([N+](=O)[O-])c(N)c2c1CCCC2,170 to 172
11,CC(=O)C=Cn1sc(Cl)cc1=O,137 to 139
12,Clc1ccc2c(c1Cl)C=NCC2,196 to 200
13,Cc1c(C(=O)O)ccc(Cl)c1O,191
14,C=CC(C)c1cc(C)c2c(c1O)C(N(C)C=O)C1CCCCC21 (stereo not given),158 to 159
15,CCCCCCCCCCCCCCOc1cc(C(=O)OC)ccc1OC,77 to 79
16,CC(=O)N1CC2CC2(c2ccccc2)C1 (stereo not given),63 to 65
17,CCC1CCC(=O)C=C1c1ccc(OCC(=O)O)c(Cl)c1Cl (stereo not given),164 to 165
18,CCOC(=O)C=CNC(=O)Nc1ccc(Cl)c(C(=O)OCC)c1,116 to 117
19,CC(=NO)c1ccc2c(c1)CCC2,104
20,CCOC(=O)CCc1ccc(C)nc1,36 to 37
21,CC(=NO)c1ccc2c(c1)CCCN2C(=O)OC(C)(C)C,127 to 129
22,CCN1N=C(c2ccc3c(c2)CCC(=O)N3C)C(C)CC1=O (stereo not given),170 to 172
23,CC(C)(C)c1cc(CCc2ccccc2NC(=O)N2CCC3(CC2)OCCO3)cc(C(C)(C)C)c1O,163 to 164
24,NC(=O)C1(CCCCCCCCCCCCC2(C(=O)O)CC2)CC1,117 to 118

# The remaining lines, values ahead:
row,melting point [°C],Structure (SMILES)
1,121 to 123,COC(=O)c1c(Oc2ccc(Cl)cc2N)c2ccccc2n1Cc1ccccc1
2,116 to 117,CC(C)c1cccc(C(C)C)c1NC(=O)CNC(c1ccccc1)c1ccc(N(C)C)cc1 (stereo not given)
3,166 to 167,CCOC(=O)COc1ccc(-c2nc(-c3ccc(C)cc3)nc(-c3ccc(C)cc3)n2)c(O)c1
4,61 to 63,N#Cc1ccc([C@@H]2[C@@H]3C(=O)N(Cc4ccc5c(c4)OCO5)C(=O)[C@@H]3[C@H]3CCCN32)cc1 (racemic)
5,217,CCOC(=O)c1c(Cl)c2cc(F)cnc2[nH]c1=O
6,222 to 223,O=[N+]([O-])c1ccc2c(c1)C(O)c1cccnc1CC2 (stereo not given)
7,136 to 137,CC(C)(C)OC(=O)CCc1ccnc(-c2nc(=O)c3ccccc3s2)c1
8,195 to 197,CC(C)S(=O)(=O)c1ccccc1Nc1nc(Nc2ccc3c(c2)C(C)(C)CCC(=O)N3C)ncc1Cl
9,194 to 195,O=C(N1CCN(c2ccncc2Cl)CC1)N1CCN(S(=O)(=O)c2ccc(Br)cc2)CC1
10,262 to 265,O=C1NC(=O)C(c2cn3c4c(cccc24)CCC3)=C1c1ccc(OCc2ccccc2)cc1
11,132 to 133,CC(=O)OC1CSC(Oc2cc(-c3ccc(C#N)cc3)cnc2F)C(OC(C)=O)C1OC(C)=O (stereo not given)
12,155 to 157,CCOC(=O)CN(CC(=O)OCC)[C@H]1CC[C@H](Nc2ncc3ncnc(Nc4ccc(F)c(Cl)c4)c3n2)CC1
13,117 to 118,O=C(O)Cc1ccc2c(c1)CCC(c1ccccc1F)N2 (stereo not given)
14,234 to 236,O=C(O)c1cccc(CC2COc3cc(O)ccc3C2=O)c1 (stereo not given)
15,148,COc1ccc(-c2ccc3ccc(NC(=O)c4ccc(C(F)(F)F)cc4)nc3n2)cc1
16,125 to 127,CN(C)c1ccc(Cn2cnc3c(Cl)ncnc32)cc1
17,87 to 88,C[C@H](NC(=O)OCC1c2ccccc2-c2ccccc21)C(=O)N1[C@H](C)C(=O)OC[C@@H]1c1ccccc1
18,> 200,O=C(NCCN1CCCC1)c1ccc(-c2cnc3c(c2)N(Cc2c(Cl)cccc2Cl)C(=O)CN3)cc1
19,140 to 141,CSc1cc2c(cc1C(F)(F)F)N(C(=O)Nc1cccc(C(=O)N(C)CCN(C)C)c1)CC2
20,134 to 136,CCCCNc1cc(C(=O)O)cc(S(N)(=O)=O)c1-c1ccccc1
21,222 to 225,CCOc1ccc(-n2c(N)cc(=O)[nH]c2=S)cc1
22,148 to 149,CC(C)Cn1c(=O)n(C)c(=O)c2c(Sc3ccccn3)c(Cc3cccc4ccccc34)sc21
23,120 to 122,Cc1ccc(C2(c3ccc(C)cc3)OC(=O)N3CCN(C(=O)Nc4ccc(F)cc4F)CC32)cc1 (stereo not given)
24,151 to 155,COc1ccc2[nH]cc(S(=O)(=O)c3ccccc3)c2c1
25,184,CN(C)C(=O)Nc1cc(CNc2ccccc2C(=O)Nc2ccc3cn(C)nc3c2)ccn1
26,142 to 144,CCOC(=O)NC1Cc2ccccc2C1Nc1ccc(OC)cc1CO (stereo not given)

row,melting point [°C],Structure (SMILES)
1,130,Cc1ccc(Nc2nc(Cl)nc(Cl)n2)cc1F
2,125,O=C1c2ccc(Nc3ccc(F)cc3F)cc2CCc2c(OC[C@H](O)CO)cccc21
3,> 250,N#Cc1cc(-c2ccncn2)c[nH]c1=O
4,185 to 186,Cc1cc(-c2cc(C(=O)O)c(=O)n(Cc3ccccc3Cl)n2)ccc1F
5,> 270,COc1ccc2nc(C(F)(F)F)c(C(=O)Nc3nccs3)c(O)c2c1
6,125,CCOC(=O)N1CCc2nc3ccccc3c(C)c2CC1
7,117 to 119,COC(=O)/C=C/c1ccc(-c2ccc(C(C)C)cc2)s1
8,91 to 93,COc1cc(N)c(Cl)cc1C(=O)NCCNCc1ccc(CN(C)C)o1
9,144 to 146,COc1nc(C)cnc1N(C(=O)OCC(C)C)S(=O)(=O)c1cccnc1-c1ccc(O)cc1
10,163 to 165,O=[N+]([O-])c1cc2ccccc2c2nccnc12
11,131 to 132,COc1cc(CON=C(CCC(=O)O)c2ccccc2)ccc1OCc1nc(-c2ccco2)oc1C
12,125,COc1ccccc1NC(=O)Oc1ccc2c(c1)N(Cc1ccccc1)CCC2
13,128 to 130,CC(=O)Oc1cc(C)ccc1C1CCN(CCCCNC(=O)c2ccc(-c3ccc(C#N)cc3)cc2)CC1
14,150 to 153,Cc1cccc(-c2cc(C(=O)O)n(C)n2)c1
15,111,COc1ccccc1C=CC=CC(=O)c1cc(OC)c(OC)c(OC)c1
16,194 to 196,Cc1ccc2c(c1)C=C(N1CCN(CCN3CCOC3=O)CC1)c1cc(Cl)ccc1S2
17,326 to 330,CC1(C)CNc2nc3cnc4ccccc4c3n2C1
18,159 to 160,COC(=O)c1cc2ccnc(NS(=O)(=O)c3cccs3)c2[nH]1
19,193 to 195,COc1cc(OC)cc(C(=O)NC(NC(=NC#N)Nc2ccc(Cl)nc2)C(C)(Cl)Cl)c1 (stereo not given)
20,97 to 99,O=[N+]([O-])c1ccc(-c2ccc(CCl)o2)cc1
21,82 to 87,CC(=O)OCCc1c([N+](=O)[O-])cc(OCc2ccccc2)c2ccccc12
22,106 to 107,Cc1cc(C)n(C)c1C(=O)C(C#N)C(=O)Nc1ccccc1 (stereo not given)
23,185 to 186,O=C(Nc1cccc(C(F)(F)F)c1F)c1ccccc1NCc1ccc(=O)[nH]c1
24,227 to 228,CN(C)c1c(C#N)cnc2c(NC(=O)c3c(Cl)cccc3Cl)cccc12
25,188 to 191,Cc1ccccc1-c1cc(=O)c(C)c(-c2ccccc2)n1-c1ccccc1
26,235 to 237,CC(c1oc2ccccc2c(=O)c1-c1cccc(F)c1)n1nc(-c2ccc(F)cc2O)c2c(N)ncnc21 (stereo not given)
